Active and inactive are the calls of the source.
Key:
Type in all cases: functional
CHO-K1 = test: (§1) Counterscreen for antagonists of the orexin 1 receptor (OX1R; HCRTR1): Homogeneous time resolved fluorescence (HTRF)-based cell-based dose response assay to identify antagonists of the parental CHO-K1 cell line. [Related pubchem assays (depositor defined):AID434989, AID435008, AID463079, AID485270, AID492963, AID492964, AID492965, AID493232, AID504699, AID504701]; conditions: Cricetulus griseus
[1] = as §1, with “Fluorescence-based” for “Homogeneous time resolved fluorescence (HTRF)-based”, “cell-based high throughput” for “cell-based”, “CHO” for “CHO-K1”
[2] = molecular target: T1, Orexin/Hypocretin receptor type 1 (Homo sapiens, UniProt O43613); test: Homogeneous Time Resolved Fluorescence (HTRF)-based cell-based high throughput dose response assay for antagonists of the orexin 1 receptor (OX1R; HCRTR1). [Related pubchem assays (depositor defined):AID434989, AID435008, AID463079, AID485270, AID492963, AID492964, AID492965, AID493232, AID504717, AID504718]
T1 sequence (O43613 whole entry): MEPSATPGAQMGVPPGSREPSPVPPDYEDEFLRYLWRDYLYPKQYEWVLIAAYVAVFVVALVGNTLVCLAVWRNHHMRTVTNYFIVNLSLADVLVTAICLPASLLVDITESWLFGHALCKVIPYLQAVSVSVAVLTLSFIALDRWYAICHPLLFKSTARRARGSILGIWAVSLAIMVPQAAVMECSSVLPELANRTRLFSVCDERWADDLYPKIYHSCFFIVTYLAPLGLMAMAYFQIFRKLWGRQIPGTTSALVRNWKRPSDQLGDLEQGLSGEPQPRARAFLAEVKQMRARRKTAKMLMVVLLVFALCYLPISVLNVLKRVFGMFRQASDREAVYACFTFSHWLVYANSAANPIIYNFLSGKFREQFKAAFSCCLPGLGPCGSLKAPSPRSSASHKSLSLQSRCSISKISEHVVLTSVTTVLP

[3] = molecular target: T1, Orexin/Hypocretin receptor type 1; test: Fluorescence-based cell-based high throughput dose response assay for antagonists of the orexin 1 receptor (OX1R; HCRTR1). [Related pubchem assays (depositor defined):AID434989, AID435008, AID463079, AID485270, AID492963, AID492964, AID492965, AID493232, AID504717, AID504718]
Orexin receptor type 2 [4] = molecular target: T2, Orexin receptor type 2 (Homo sapiens, UniProt O43614); test: Counterscreen assay for antagonists of the orexin 1 receptor (OX1R; HCRTR1): Fluorescence-based cell-based dose response assay for antagonists of the orexin 2 receptor (OX2R; HCRTR2), run by assay provider.
T2 sequence (O43614 whole entry): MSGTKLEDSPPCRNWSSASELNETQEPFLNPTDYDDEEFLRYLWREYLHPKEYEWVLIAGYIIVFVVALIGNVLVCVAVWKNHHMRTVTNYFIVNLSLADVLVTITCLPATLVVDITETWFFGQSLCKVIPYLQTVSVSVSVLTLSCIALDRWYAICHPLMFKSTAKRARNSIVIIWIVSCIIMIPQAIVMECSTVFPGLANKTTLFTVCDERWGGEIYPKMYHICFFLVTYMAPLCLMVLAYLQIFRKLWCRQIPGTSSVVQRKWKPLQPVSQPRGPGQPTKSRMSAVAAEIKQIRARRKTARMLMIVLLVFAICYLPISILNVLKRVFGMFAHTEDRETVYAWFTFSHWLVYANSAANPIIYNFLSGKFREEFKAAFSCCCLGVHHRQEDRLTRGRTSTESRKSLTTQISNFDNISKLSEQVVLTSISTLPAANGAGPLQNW

Orexin receptor type 2 [5] = molecular target: T2, Orexin receptor type 2; test: Counterscreen assay for antagonists of the orexin 1 receptor (OX1R; HCRTR1): Homogeneous Time Resolved Fluorescence (HTRF)-based cell-based dose response assay for antagonists of the orexin 2 receptor (OX2R; HCRTR2), run by assay provider.
Melanocortin receptor 4 = Melanocortin receptor 4 (Homo sapiens, UniProt P32245); test: MC4R antagonist potency on cAMP, dose response, cell-based, TR-FRET, biased antagonists (AID 602298);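 also: antagonist potency against agonist-stimulated cAMP production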
[6] = nonselective inhibitors of cellular cAMP signaling, dose response, counter-screen for MC4R biased antagonist project, cell-based, TR-FRET cAMP detection (AID 602305);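 also: U2OS cells stimulated with forskolin near its EC80 as the cAMP inducer; potency is for inhibition of forskolin-stimulated cAMP signaling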
[7] = THP-1 cell cytotoxicity, dose response, cytotoxicity control for non-replicating M. tuberculosis project (AID 489025)
cells = test: cells
[8] = molecular target: T3, High affinity choline transporter 1 (Homo sapiens, UniProt Q9GZV3); test: CHT activators, dose response, cell-based, 10-point CRC, membrane potential dye (AID 602376)
T3 sequence (Q9GZV3 whole entry): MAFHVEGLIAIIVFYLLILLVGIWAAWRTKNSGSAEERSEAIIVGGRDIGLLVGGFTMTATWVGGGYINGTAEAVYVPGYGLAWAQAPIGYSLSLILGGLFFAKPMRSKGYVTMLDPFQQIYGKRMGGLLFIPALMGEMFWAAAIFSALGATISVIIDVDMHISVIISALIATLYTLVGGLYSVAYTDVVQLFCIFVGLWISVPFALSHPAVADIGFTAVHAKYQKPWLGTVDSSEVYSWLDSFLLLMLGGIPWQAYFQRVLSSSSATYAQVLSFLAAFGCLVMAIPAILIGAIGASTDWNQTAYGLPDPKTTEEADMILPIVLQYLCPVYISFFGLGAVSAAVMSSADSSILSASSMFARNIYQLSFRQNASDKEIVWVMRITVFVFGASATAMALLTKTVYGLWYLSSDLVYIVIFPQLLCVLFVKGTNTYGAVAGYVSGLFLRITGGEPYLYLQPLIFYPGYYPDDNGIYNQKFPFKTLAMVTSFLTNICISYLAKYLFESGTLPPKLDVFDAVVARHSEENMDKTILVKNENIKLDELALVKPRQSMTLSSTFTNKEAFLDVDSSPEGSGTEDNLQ

[9] = molecular target: T4, Sentrin-specific protease 8 (Homo sapiens, UniProt Q96LD8); test: SENP8 protease inhibitors, SAR follow-up, biochemical, luminescence (AID 504501)
T4 sequence (Q96LD8 whole entry): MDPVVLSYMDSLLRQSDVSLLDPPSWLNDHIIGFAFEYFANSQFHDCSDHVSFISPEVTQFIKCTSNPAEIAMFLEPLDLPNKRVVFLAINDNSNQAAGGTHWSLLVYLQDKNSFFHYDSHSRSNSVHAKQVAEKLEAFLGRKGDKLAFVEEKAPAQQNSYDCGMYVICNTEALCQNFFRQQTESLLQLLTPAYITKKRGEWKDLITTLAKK

Caspase-3 = molecular target: T5, Caspase-3 (Homo sapiens, UniProt P42574); test: SAR Analysis of small molecule inhibitors of Sentrin-specific proteases (SENPs) using a Caspase-3 Selectivity assay. [Related pubchem assays (depositor defined):AID2540, AID2599, AID434973, AID489001]
T5 sequence (P42574 whole entry): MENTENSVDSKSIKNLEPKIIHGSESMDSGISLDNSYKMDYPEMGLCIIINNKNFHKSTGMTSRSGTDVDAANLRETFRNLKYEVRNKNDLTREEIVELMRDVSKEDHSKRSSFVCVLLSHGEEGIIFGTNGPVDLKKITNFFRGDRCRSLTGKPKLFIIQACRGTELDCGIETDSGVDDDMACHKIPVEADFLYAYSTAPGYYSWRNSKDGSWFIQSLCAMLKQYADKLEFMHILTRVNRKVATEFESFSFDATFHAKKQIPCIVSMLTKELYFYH

[10] = molecular target: T6, Sentrin-specific protease 6 (Homo sapiens, UniProt Q9GZR1); test: SAR Analysis of small molecule inhibitors of Sentrin-specific protease 6 (SENP6) using a Luminescent assay. [Related pubchem assays (depositor defined):AID2582, AID2599]
T6 sequence (Q9GZR1 whole entry): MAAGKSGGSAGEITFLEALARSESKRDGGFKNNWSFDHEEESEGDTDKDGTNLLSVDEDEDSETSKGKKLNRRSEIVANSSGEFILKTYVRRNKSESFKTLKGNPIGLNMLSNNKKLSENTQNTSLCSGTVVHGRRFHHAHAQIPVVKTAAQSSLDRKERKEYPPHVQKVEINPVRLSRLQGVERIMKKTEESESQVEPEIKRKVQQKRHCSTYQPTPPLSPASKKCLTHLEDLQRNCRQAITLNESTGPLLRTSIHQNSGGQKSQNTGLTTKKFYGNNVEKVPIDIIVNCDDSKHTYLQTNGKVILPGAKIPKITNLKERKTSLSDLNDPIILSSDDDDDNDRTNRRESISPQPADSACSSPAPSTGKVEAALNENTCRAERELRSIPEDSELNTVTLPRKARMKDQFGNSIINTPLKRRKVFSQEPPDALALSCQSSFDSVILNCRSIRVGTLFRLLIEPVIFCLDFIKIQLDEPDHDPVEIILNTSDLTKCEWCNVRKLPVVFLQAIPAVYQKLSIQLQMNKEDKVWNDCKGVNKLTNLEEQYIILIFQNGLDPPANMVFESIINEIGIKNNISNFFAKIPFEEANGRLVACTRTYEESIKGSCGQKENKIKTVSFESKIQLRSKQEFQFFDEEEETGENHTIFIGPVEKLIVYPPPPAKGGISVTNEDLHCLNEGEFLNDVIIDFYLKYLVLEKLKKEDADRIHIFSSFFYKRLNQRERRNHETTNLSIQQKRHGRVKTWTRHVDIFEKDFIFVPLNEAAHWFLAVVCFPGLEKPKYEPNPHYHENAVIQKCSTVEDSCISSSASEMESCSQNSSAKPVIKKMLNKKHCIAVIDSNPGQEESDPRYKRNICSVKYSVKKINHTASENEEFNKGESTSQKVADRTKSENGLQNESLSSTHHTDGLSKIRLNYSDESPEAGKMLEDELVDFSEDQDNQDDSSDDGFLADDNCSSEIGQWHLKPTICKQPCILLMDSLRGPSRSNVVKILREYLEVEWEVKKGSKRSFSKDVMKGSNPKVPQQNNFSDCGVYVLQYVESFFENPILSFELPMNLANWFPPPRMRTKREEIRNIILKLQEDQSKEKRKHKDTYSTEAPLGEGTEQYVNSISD

[11] = molecular target: T7, Sentrin-specific protease 7 (Homo sapiens, UniProt Q9BQF6); test: SENP7 protease inhibitors, SAR follow-up, biochemical, luminescence (AID 504497)
T7 sequence (Q9BQF6 whole entry): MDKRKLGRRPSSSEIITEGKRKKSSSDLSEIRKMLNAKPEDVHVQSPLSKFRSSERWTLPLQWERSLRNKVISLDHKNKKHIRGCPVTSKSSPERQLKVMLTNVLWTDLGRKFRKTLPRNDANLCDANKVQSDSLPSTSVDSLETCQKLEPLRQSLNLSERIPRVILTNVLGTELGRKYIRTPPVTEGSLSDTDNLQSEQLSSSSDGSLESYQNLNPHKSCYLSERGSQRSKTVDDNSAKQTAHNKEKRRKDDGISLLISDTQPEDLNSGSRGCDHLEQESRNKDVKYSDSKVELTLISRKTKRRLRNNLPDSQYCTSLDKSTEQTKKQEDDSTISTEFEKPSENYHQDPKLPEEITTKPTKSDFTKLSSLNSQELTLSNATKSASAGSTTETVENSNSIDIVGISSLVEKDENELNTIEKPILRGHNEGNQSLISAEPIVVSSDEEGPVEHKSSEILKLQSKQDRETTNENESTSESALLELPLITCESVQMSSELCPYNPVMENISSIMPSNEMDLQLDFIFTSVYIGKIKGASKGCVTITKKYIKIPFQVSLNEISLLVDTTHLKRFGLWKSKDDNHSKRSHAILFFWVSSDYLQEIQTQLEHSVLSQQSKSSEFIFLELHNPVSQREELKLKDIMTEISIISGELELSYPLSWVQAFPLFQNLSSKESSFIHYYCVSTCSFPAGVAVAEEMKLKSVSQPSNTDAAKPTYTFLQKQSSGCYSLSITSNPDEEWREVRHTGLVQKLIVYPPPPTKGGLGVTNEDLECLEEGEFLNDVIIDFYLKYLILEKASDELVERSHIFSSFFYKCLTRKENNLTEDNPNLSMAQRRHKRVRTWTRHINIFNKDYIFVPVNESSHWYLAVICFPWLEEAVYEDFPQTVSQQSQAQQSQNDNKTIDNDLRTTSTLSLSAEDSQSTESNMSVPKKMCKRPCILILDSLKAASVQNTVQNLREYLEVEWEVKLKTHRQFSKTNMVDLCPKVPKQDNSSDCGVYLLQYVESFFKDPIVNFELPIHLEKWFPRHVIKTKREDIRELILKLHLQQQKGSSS

[12] = molecular target: DNA dC->dU-editing enzyme APOBEC-3G (Homo sapiens, UniProt Q9HC16); test: APOBEC3G deaminase inhibitors, SAR follow-up, biochemical, fluorescence, single-stranded DNA substrate (AID 602136); conditions: read-out: IC50_Mean
[13] = molecular target: DNA dC->dU-editing enzyme APOBEC-3A (Homo sapiens, UniProt P31941); test: SAR analysis of small molecule inhibitors of APOBEC3A DNA Deaminase via a fluorescence-based single-stranded DNA deaminase assay.; conditions: read-out: IC50_Mean
Sequence of DNA dC->dU-editing enzyme APOBEC-3A (P31941 whole entry): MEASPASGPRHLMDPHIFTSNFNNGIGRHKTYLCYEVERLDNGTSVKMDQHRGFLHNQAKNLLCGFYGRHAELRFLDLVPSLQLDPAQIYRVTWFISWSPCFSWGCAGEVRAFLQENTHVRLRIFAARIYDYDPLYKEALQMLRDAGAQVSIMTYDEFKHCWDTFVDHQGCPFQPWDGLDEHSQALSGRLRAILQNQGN

Sequence of Melanocortin receptor 4 (P32245 whole entry): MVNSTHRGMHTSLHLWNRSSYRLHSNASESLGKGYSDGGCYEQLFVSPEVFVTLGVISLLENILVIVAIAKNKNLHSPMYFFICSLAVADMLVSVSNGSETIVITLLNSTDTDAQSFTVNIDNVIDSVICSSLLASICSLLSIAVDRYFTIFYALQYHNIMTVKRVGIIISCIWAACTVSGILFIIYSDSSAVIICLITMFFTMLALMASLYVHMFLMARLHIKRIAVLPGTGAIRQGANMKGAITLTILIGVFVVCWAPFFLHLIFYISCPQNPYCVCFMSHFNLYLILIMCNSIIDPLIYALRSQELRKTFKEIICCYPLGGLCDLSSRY
Sequence of DNA dC->dU-editing enzyme APOBEC-3G (Q9HC16 whole entry): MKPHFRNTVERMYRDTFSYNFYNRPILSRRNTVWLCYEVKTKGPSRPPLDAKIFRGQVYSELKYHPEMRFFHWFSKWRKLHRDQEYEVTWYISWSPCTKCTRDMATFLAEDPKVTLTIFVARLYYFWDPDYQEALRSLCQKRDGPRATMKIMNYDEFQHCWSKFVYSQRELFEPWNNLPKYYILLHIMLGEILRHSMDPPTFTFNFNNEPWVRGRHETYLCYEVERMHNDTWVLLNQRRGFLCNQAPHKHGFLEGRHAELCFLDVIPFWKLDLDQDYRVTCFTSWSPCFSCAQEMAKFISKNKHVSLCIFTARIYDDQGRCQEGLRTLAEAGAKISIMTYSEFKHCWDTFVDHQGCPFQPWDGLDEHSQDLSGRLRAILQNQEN

With `O=C(OCC#CCSc1nnc(-c2cccc3ccccc23)o1)c1cccc2[nH]ccc12` the IC50 (CHO-K1) was > 66.2 µM (inactive), the IC50 [1] was > 49.8 µM (inactive) and the IC50 [2] was 506 nM (active). The IC50 [3] was 14 µM (inactive), the IC50 (Orexin receptor type 2 [4]) was > 88.8 µM (inactive) and the IC50 (Orexin receptor type 2 [5]) was 1.39 µM (active).

In the case of `CN(c1ccc(OCC(=O)OCC(=O)Nc2ccc(Br)cc2)cc1)S(=O)(=O)c1cccs1`, the IC50 (Melanocortin receptor 4) is reported as > 64.6 µM (inactive) and the IC50 [6] is reported as > 64.6 µM (inactive).

With `c1coc(CNc2nc(N3CCCCC3)nc3ccccc23)c1` the CC50 [7] was 19.6 µM (active), the IC50 (cells) was 6.64 µM (active) and the EC50 [8] was 1.79 µM (active).

With `O=C(NCCCN1CCN(CCCNC(=O)c2cccc(Cl)c2)CC1)c1cccc(Cl)c1` the EC50 [8] was 9.44 µM (active).

With `CCOc1ccc(C(=O)Nc2ccc3ccccc3c2)cc1Cl` the IC50 [9] was > 99 µM (inactive), the IC50 (Caspase-3) was > 99 µM (inactive) and the IC50 [10] was > 99 µM (inactive). For the same molecule, the IC50 [11] was > 99 µM (inactive).

For `COc1cccc(/C=N/NC(=O)c2nnn(-c3nonc3N)c2CN(C)c2ccccc2)c1`, the IC50 (CHO-K1) was > 66.2 µM (inactive), the IC50 [1] was > 49.7 µM (inactive) and the IC50 [2] was 513 nM (active). For the same molecule, the IC50 [3] was 5.95 µM (active), the IC50 (Orexin receptor type 2 [4]) was > 88.8 µM (inactive) and the IC50 (Orexin receptor type 2 [5]) was 5.39 µM (active).

For `CS(=O)(=O)N1CCC(C(=O)Nc2cc(C(F)(F)F)ccc2N2CCOCC2)CC1`, the IC50 [12] was > 99 µM (inactive) and the IC50 [13] was > 99 µM (inactive).

— ChEMBL document CHEMBL1201862, “PubChem BioAssay data set” (2004)
